Laboratory results as given in patent EP3928779A1 (Chugai Seiyaku Kabushiki Kaisha, priority 2014, dated 2016).

system: rat small-intestinal brush border membrane vesicles; test: Inhibitory effect on 33PO4 uptake into rat small-intestinal brush border membrane vesicles (rapid filtration method); assay type: biochemical; settings: 33PO4 uptake into rat small-intestinal BBMVs; test compound 1 µM; reacted for 60 seconds
Protocol: Brush border membrane vesicles (BBMVs) were prepared using the upper region of the small intestine of each Wistar female rat (4-5 weeks old). […] The ^33PO4 transport activity of the small-intestinal BBMVs was determined by the rapid filtration method. […] Then, ice-cold buffer C (110 mM NaCl, 1 mM KH2PO4, and 10 mM HEPES (pH 7.5)) was added to each reaction mixture, which was immediately suctionfiltered through a Millipore filter. The filter was washed with buffer C, and each sample was then dissolved in a liquid scintillator. The amount of ^33PO4 uptake into BBMVs was measured using a liquid scintillation counter. […]

Row | SMILES | Rate of uptake inhibition (%) (1 µM)
1 | CN1[C@@H](C(C)(C)C)C(O)=C(C(=O)Nc2ccc(Cl)cc2-c2cc(C#N)ncn2)C(=O)N1Cc1ccc(OCCN2CCOCC2)c(F)c1F [Example 272] | 43%
2 | COCCN(C)CCOc1c(I)cc(CN2C(=O)C(C(=O)Nc3ccc(C(F)(F)F)cc3-c3cc(C(F)(F)F)ncn3)=C(O)C3(CCCC3)N2C)c(F)c1F [Example 437, 7-[[2,3-Difluoro-5-iodo-4-[2-[2-methoxyethyl(methyl)amino]ethoxy]phenyl]methyl]-10-hydroxy-6-methyl-8-oxo-N-[4-(trifluoromethyl)-2-[6-(trifluoromethyl)pyrimidin-4-yl]phenyl]-6,7-diazaspiro[4.5]dec-9-ene-9-carboxamide] | 45%
3 | CSc1ncc(-c2cc(C(F)(F)F)ccc2NC(=O)C2=C(O)[C@@]3(C)CCCN3N(Cc3ccc(C#CCCCCC(=O)O)c(F)c3F)C2=O)cn1 [Example 118] | 81%
4 | C[C@]12CCCN1N(Cc1cccc(F)c1)C(=O)C(C(=O)Nc1ccc(C(F)(F)F)cc1-c1ccc(C(F)(F)F)nc1)=C2O [Example 206] | 76%
5 | CN1N(Cc2ccc(OCCCCCCC(=O)O)c(F)c2F)C(=O)C(C(=O)Nc2ccc(C(F)(F)F)cc2-c2cc(C(F)(F)F)ncn2)=C(O)C12CCCC2 [Example 335] | 30%
6 | CSc1ccc(-c2nc(C(F)(F)F)ccc2NC(=O)C2=C(O)[C@@]3(C)CCCN3N(Cc3cccc(F)c3F)C2=O)cn1 [Example 105] | 72%
7 | CN(CCOc1ccc(CN2C(=O)C(C(=O)Nc3ccc(C(F)(F)F)cc3-c3cc(C(F)(F)F)ncn3)=C(O)C3(CCCC3)N2C)c(F)c1F)C1CCOC1 (stereo not drawn) [Example 366] | 38%
8 | C[C@]12CCCN1N(Cc1ccccc1C#N)C(=O)C(C(=O)Nc1ccc(C(F)(F)F)cc1-c1cc(C(F)(F)F)ncn1)=C2O [Example 178] | 81%
9 | C[C@]12CCCN1N(Cc1cccc(F)c1F)C(=O)C(C(=O)Nc1ccc(Br)cc1-c1ccc(Cl)nc1)=C2O [Example 122, (4aR)-N-[4-Bromo-2-(6-chloropyridin-3-yl)phenyl]-1-[(2,3-difluorophenyl)methyl]-4-hydroxy-4a-methyl-2-oxo-6,7-dihydro-5H-pyrrolo[1,2-b]pyridazine-3-carboxamide] | 82%
10 | Cc1cc(-c2cc(C(F)(F)F)ccc2NC(=O)C2=C(O)[C@@]3(C)CCCN3N(Cc3cccc(F)c3F)C2=O)cnc1C#N [Example 101] | 57%
11 | COc1cccc(-c2cc(C(F)(F)F)ccc2NC(=O)C2=C(O)[C@@]3(C)CCCN3N(Cc3ccc(C#CCOCCOCCO)c(F)c3F)C2=O)c1OC [Example 139] | 88%
12 | CN1N(Cc2ccc(OCCCCOC[C@H](O)CO)c(F)c2F)C(=O)C(C(=O)Nc2ccc(C(F)(F)F)cc2-c2ccc(C(F)(F)F)nc2)=C(O)C12CCC2 [Example 384] | 39%
13 | CN1N(Cc2ccc(OCCN3CCOCC3)c(F)c2F)C(=O)C(C(=O)Nc2ccc(C(F)(F)F)cc2-c2ccc(C(F)(F)F)nc2)=C(O)C1(C)C [Example 314, 2-[[2,3-Difluoro-4-(2-morpholin-4-ylethoxy)phenyl)methyl]-5-hydroxy-1,6,6-trimethyl-3-oxo-N-[4-(trifluoromethyl)-2-[6-(trifluoromethyl)pyridin-3-yl]phenyl]pyridazine-4-carboxamide] | 72%
14 | C[C@H]1COC[C@H](C)N1CCOc1ccc(CN2C(=O)C(C(=O)Nc3ccc(C(F)(F)F)cc3-c3cc(C(F)(F)F)ncn3)=C(O)C3(CCC3)N2C)c(F)c1F [Example 343] | 68%
15 | CN1N(Cc2ccc(OCCNCCS(=O)(=O)O)c(F)c2F)C(=O)C(C(=O)Nc2ccc(C(F)(F)F)cc2-c2cc(C(F)(F)F)ncn2)=C(O)C12CCCC2 [Example 435, 2-[2-[2,3-Difluoro-4-[[10-hydroxy-6-methyl-8-oxo-9-[[4-(trifluoromethyl)-2-[6-(trifluoromethyl)pyrimidin-4-yl]phenyl]carbamoyl]-6,7-diazaspiro[4.5]dec-9-en-7-yl]methyl]phenoxy]ethylamino]ethanesulfonic acid] | 11%
16 | C[C@]12CCCN1N(Cc1cccc(F)c1F)C(=O)C(C(=O)Nc1ccc(C(F)(F)F)cc1-c1cnc(C#N)c([N+](=O)[O-])c1)=C2O [Example 99, (4aR)-N-[2-(6-Cyano-5-nitropyridin-3-yl)-4-(trifluoromethyl)phenyl]-1-[(2,3-difluorophenyl)methyl]-4-hydroxy-4a-methyl-2-oxo-6,7-dihydro-5H-pyrrolo[1,2-b]pyridazine-3-carboxamide] | 82%
17 | COc1cccc(-c2cc(C(F)(F)F)ccc2NC(=O)C2=C(O)[C@@]3(C)CCCN3N(Cc3cccc(F)c3F)C2=O)n1 [Example 93] | 56%
18 | CN1[C@@H](C(C)(C)C)C(O)=C(C(=O)Nc2ccc(C(F)(F)F)cc2-c2ccnc(C#N)c2)C(=O)N1Cc1ccc(OCCN2CCOCC2)c(F)c1F [Example 271] | 60%
19 | CN1N(Cc2cccc(F)c2F)C(=O)C(C(=O)Nc2ccc(C(F)(F)F)cc2-c2cc(C(F)(F)F)ncn2)=C(O)C12CCCC2 [Example 260] | 70%
20 | C[C@]12CCCN1N(Cc1c(F)cc(OCCCCCCOC[C@@H](O)CO)cc1F)C(=O)C(C(=O)Nc1ccc(C(F)(F)F)cc1-c1ccc(C(F)(F)F)nc1)=C2O [Example 154] | 73%

Row | SMILES | Rate of uptake inhibition (%) (1 µM)
21 | CN1N(Cc2ccc(OCCN3CCOCC3(C)C)c(F)c2F)C(=O)C(C(=O)Nc2ccc(C(F)(F)F)cc2-c2cc(C(F)(F)F)ncn2)=C(O)C12CCCC2 [Example 371] | 38%
22 | CN1N(Cc2ccc(OCCCCOCCCO)c(F)c2F)C(=O)C(C(=O)Nc2ccc(C(F)(F)F)cc2-c2cc(C(F)(F)F)ncn2)=C(O)C12CCCC2 [Example 399] | 42%
23 | CCC1(CC)C(O)=C(C(=O)Nc2ccc(C(F)(F)F)cc2-c2ccc(C(F)(F)F)nc2)C(=O)N(Cc2ccc(OCCN3CCOCC3)c(F)c2F)N1C [Example 293] | 47%
24 | CCCCCN1C(=O)C(C(=O)Nc2ccc(C(F)(F)F)cc2-c2ccc(C(F)(F)F)nc2)=C(O)[C@@]2(C)CCCN12 [Example 26] | 72%
25 | CC1(C)C(O)=C(C(=O)Nc2ccc(C(F)(F)F)cc2-c2cc(C(F)(F)F)ncn2)C(=O)N(Cc2cccc(F)c2F)N1c1ccccc1 [Example 299] | 45%
26 | CN1N(Cc2cccc(F)c2F)C(=O)C(C(=O)Nc2ccc(C(F)(F)F)cc2-c2cc(C#N)ncn2)=C(O)C1(C)C [Example 303] | 42%
27 | C[C@]12CCCN1N(Cc1cccc(F)c1F)C(=O)C(C(=O)Nc1ccc(C(F)(F)F)cc1-c1cnc(Cl)c(C#N)c1)=C2O [Example 68, (4aR)-N-[2-(6-Chloro-5-cyanopyridin-3-yl)-4-(trifluoromethyl)phenyl]-1-[(2,3-difluorophenyl)methyl]-4-hydroxy-4a-methyl-2-oxo-6,7-dihydro-5H-pyrrolo[1,2-b]pyridazine-3-carboxamide] | 84%
28 | C[C@]12CCCN1N(Cc1cccc(F)c1Cl)C(=O)C(C(=O)Nc1ccc(C(F)(F)F)cc1-c1ccc(C(F)(F)F)nc1)=C2O [Example 201] | 77%
29 | CCCN(CCN(C)CCOC)c1ccc(CN2C(=O)C(C(=O)Nc3ccc(C(F)(F)F)cc3-c3cc(C(F)(F)F)ncn3)=C(O)C3(CCCC3)N2C)c(F)c1F [Example 444] | 24%
30 | C[C@]12CCCN1N(Cc1c(Cl)cc(OCCN3CCOCC3)cc1Cl)C(=O)C(C(=O)Nc1cnc(C(F)(F)F)nc1-c1ccc(C(F)(F)F)nc1)=C2O.Cl [Example 146, (4aR)-1-[[2,6-Dichloro-4-(2-morpholin-4-ylethoxy)phenyl]methyl]-4-hydroxy-4a-methyl-2-oxo-N-[2-(trifluoromethyl)-4-[6-(trifluoromethyl)pyridin-3-yl]pyrimidin-5-yl]-6,7-dihyvdro-5H-pyrrolo[1,2-b]pyridazine-3-carboxamide hydrochloride] | 71%
31 | CC(C)(C)[C@H]1C(O)=C(C(=O)Nc2cc(F)c(Br)c(F)c2)C(=O)N(Cc2cccc(F)c2F)N1CC(F)(F)F [Example 248] | 45%
32 | C[C@]12CCCN1N(Cc1ccccc1F)C(=O)C(C(=O)Nc1ccc(C(F)(F)F)cc1-c1ccc(C(F)(F)F)nc1)=C2O [Example 200] | 80%
33 | C[C@]12CCCN1N(Cc1c(F)cc(C#CCN3CCOCC3)cc1F)C(=O)C(C(=O)Nc1ccc(C(F)(F)F)cc1-c1ccc(C(F)(F)F)nc1)=C2O [Example 132] | 71%
34 | CN1N(Cc2ccc(OCCOCCOCCOCCC(=O)NCC(O)CO)c(F)c2F)C(=O)C(C(=O)Nc2ccc(C(F)(F)F)cc2-c2cc(C(F)(F)F)ncn2)=C(O)C12CCCC2 (stereo not drawn) [Example 424] | 17%
35 | Cc1ccccc1CN1C(=O)C(C(=O)Nc2ccc(C(F)(F)F)cc2-c2cc(C(F)(F)F)ncn2)=C(O)[C@@]2(C)CCCN12 [Example 185] | 83%
36 | Cc1cc(NC(=O)C2=C(O)[C@@H]3CC(C)(C)CN3N(Cc3cccc(F)c3)C2=O)c(C(F)(F)F)o1 [Example 3] | 11%
37 | CN1N(Cc2ccc(OCCCCOC[C@H](O)CO)c(F)c2F)C(=O)C(C(=O)Nc2ccc(C(F)(F)F)cc2-c2cc(C(F)(F)F)ncn2)=C(O)C12CCC2 [Example 390] | 58%
38 | CSc1ccc(-c2cc(C(F)(F)F)ccc2NC(=O)C2=C(O)[C@H](C(C)(C)C)N(C)N(Cc3ccc(OCCN4CCOCC4)c(F)c3F)C2=O)cn1 [Example 268] | 63%
39 | C[C@]12CCCN1N(Cc1c(F)cc(OCCCCCOC[C@@H](O)CO)cc1F)C(=O)C(C(=O)Nc1ccc(C(F)(F)F)cc1-c1ccc(C(F)(F)F)nc1)=C2O [Example 153] | 73%
